Results: patent US20110251216A1, “COMPOSITIONS AND METHODS FOR INHIBITING EZH2” (The Regents of The University of Michigan, priority 2010, published 2011)

Key:
Type in all cases: cell-based
EZH2 = target: T1, EZH2 (Homo sapiens, UniProt Q15910); experiment: high throughput screen, E-cadherin promoter luciferase reporter in EZH2 adenovirus infected cells; details: final compound concentration about 5 μM, 24 hours
T1 construct: expressed in transfected cells; host or cells: Primary breast cancer cells infected with EZH2 adenovirus
Experimental: A high throughput screening protocol was used to identify small molecule inhibitors of EZH2. Primary breast cancer cells were transfected with the E-cadherin promoter luciferase reporter gene and infected with the EZH2 adenovirus to suppress luciferase expression 48 hours prior to compound addition. Eighteen hours prior to compound addition, cells were trypsinized and distributed into 384-well plates in 60 μl of medium using the Multidrop equipment. At time zero, compounds were transferred from 1.5 mM DMSO stocks to the cell plates in a final compound concentration of about 5 μM. […] After 24 hours, the expressed luciferase activity was measured by adding 50 μl of the medium and 10 μl of Steady-Glo luciferase reagent (Promega). Sample plates were read in the Pherastar plate reader (BMG Labtech). Each plate in the screen contains 320 compounds to be tested plus 64 control wells placed in the outer two columns on each side of the plate (>50,000 compounds are screened). […]
A high throughput screening protocol was used to identify small molecule inhibitors of EZH2. […] After 24 hours, the expressed luciferase activity was measured by adding 50 μl of the medium and 10 ul of Steady-Glo luciferase reagent (Promega). Sample plates were read in the Pherastar plate reader (BMG Labtech). […]

[1] = system: EZH2 mediated E cadherin repression; experiment: EZH2 mediated E cadherin repression, SYBR green RT-PCR and dose response
Experimental: A, Chemical structure of the flavonoid isoliquiritigenin. B, Quantitative SYBR green RT-PCR of EZH2 and E cadherin transcripts in cell lines over expressing EZH2 and control adenoviruses. RT-PCR on each sample was performed in duplicate, and a ratio was calculated relative to the housekeeping genes GAPDH. Transcripts were also measured in cells that were treated with isoliquiritigenin or other small molecules.
(§1) A, Dose response of isoliquiritigenin on inhibiting EZH2 mediated repression. B, A reconstituted basement membrane invasion chamber assay was used to assess the invasion of breast epithelial cell line infected with EZH2 and control adenoviruses as well as SET domain mutant EZH2 adenovirus. EZH2 treated cells were also treated with SAHA, the HDAC inhibitor and isoliquiritigenin, the small molecule inhibitor of EZH2 and the control small molecule phloretin.

[2] = system: breast cell line HME infected with EZH2 adenovirus; experiment: basement membrane matrix invasion assay, EZH2 overexpressing HME cells
Experimental: as §1
For invasion assays, the breast cell lines HME was infected with EZH2 adenovirus. Forty-eight hours post-infection, cells were seeded onto the basement membrane matrix (EC matrix, Chemicon, Temecula, Calif.) present in the insert of a 24-well culture plate. Fetal bovine serum was added to the lower chamber as a chemoattractant with or without 2 doses of small molecule inhibitors. After 48 hours, the non-invading cells and EC matrix were gently removed with a cotton swab. Invasive cells located on the lower side of the chamber were measured colorimetrically by treating with 150 μl of 10% acetic acid and the absorbance measured at 560 nm using a spectrophotometer.

T1 sequence (Q15910 whole entry): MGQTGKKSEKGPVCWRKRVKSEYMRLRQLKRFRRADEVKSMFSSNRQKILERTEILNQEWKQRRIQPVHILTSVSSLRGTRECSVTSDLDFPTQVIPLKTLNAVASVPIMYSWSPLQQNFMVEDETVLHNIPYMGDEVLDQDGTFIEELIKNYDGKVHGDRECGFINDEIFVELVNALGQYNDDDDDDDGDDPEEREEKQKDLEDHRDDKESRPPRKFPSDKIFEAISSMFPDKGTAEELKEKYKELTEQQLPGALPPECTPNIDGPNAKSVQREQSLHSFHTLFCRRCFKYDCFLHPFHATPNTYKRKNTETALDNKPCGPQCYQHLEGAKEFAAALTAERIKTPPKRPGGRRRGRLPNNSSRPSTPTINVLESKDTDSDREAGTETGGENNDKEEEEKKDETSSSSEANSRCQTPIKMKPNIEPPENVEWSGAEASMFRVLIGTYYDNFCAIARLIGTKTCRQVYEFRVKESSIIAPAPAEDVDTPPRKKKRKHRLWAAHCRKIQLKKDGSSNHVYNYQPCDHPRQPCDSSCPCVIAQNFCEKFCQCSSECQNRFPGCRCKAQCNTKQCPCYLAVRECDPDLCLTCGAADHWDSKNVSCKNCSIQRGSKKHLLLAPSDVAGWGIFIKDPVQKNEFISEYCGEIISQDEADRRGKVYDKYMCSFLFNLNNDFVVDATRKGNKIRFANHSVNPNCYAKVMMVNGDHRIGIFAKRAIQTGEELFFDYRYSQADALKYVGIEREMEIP
T1 sequence (O75530 whole entry partner): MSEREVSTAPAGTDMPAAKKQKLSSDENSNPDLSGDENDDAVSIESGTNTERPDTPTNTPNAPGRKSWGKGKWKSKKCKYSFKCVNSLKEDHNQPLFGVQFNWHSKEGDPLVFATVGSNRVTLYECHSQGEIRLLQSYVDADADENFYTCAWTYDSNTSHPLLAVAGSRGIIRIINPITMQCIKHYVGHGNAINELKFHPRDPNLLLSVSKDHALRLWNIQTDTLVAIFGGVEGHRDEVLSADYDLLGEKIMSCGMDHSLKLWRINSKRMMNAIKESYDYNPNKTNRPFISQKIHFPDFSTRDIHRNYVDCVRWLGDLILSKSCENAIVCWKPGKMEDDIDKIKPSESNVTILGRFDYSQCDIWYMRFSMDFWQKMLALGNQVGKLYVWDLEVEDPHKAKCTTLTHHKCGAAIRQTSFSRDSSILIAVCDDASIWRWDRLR
T1 sequence (Q15022 whole entry partner): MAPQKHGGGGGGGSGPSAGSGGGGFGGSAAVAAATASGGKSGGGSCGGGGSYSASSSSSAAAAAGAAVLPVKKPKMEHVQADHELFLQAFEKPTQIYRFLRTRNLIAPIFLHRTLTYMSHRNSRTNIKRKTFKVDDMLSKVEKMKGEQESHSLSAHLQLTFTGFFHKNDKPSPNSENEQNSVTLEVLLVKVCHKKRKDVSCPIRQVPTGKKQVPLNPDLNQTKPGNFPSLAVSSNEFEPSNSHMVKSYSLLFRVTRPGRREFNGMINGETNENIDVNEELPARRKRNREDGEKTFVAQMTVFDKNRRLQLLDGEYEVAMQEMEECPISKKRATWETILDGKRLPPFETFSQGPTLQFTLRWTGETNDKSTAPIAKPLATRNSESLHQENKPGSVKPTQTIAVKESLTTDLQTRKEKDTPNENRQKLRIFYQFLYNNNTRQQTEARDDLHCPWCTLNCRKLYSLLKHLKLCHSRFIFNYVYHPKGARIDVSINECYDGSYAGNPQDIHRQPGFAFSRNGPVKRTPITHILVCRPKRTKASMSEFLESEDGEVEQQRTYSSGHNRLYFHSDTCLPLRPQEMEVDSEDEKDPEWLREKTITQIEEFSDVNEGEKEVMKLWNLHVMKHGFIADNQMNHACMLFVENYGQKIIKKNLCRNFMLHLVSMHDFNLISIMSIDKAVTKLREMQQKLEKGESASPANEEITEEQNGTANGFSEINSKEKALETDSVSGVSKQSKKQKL

SMILES: O=C(/C=C/c1ccc(O)cc1)c1ccc(O)cc1O [isoliquiritigenin]
- EZH2 inhibitory activity in high throughput screen (EZH2): potent small molecule inhibitor of EZH2 activity
- inhibition of EZH2 mediated E cadherin repression ([1]; cells over expressing EZH2, FIG. 5B): significantly inhibit
- concentration that optimally inhibits EZH2 mediated E cadherin repression ([1]; dose response, FIG. 6A): 16 µM
- invasion mediated by EZH2 overexpression [2]: inhibited this invasion

SMILES: O=C(CCc1ccc(O)cc1)c1c(O)cc(O)cc1O [control small molecule, phloretin, reference compound]
- invasion mediated by EZH2 overexpression [2]: did not inhibit the invasion
